Values joined by “and” are separate entries in the source; they are usually repeats but may differ in a detail not shown here. Equal entries are not always repeated. Marks after values point to notes of the source that are not given here.
Tests used:
Balb/c mice, 6.11 Gy TBI [1] = experiment: Dose optimization / pharmacodynamics study in LD70/30 ARS model (40 mice per group)
Balb/c mice, 6.11 Gy TBI [2] = experiment: Dosing schedule optimization (delayed treatment) in LD70/30 model; format: in vivo, mouse
Procedure: EC-18 was administered daily in-life with its optimal dosage (250 mg/kg) at 0, 1, 2, and 3 days after irradiation on Day 0. To examine the durable efficacy of EC-18, the survival was examined 15 days after the in-life phase without the daily treatment of EC-18.
EC-18 was administered daily in-life with its optimal dosage (250 mg/kg) at 0, 1, 2, and 3 days after irradiation on Day 0. The survival rate of the γ-radiation only group was 35%. The percentages of survival of the irradiated mice with EC-18+0d, +1d, +2d, and +3d were 80, 70, 55, and 80%, respectively (FIG. 72).

[3] = 6.11 Gy, 250 mg/kg daily starting +0 d
[4] = 6.11 Gy, 250 mg/kg daily starting +1 d
[5] = 6.11 Gy, 250 mg/kg daily starting +2 d
[6] = 6.11 Gy, 250 mg/kg daily starting +3 d
[7] = 6.11 Gy, 250 mg/kg daily starting +3 d, 250 mg/kg

CCCCC/C=C\C/C=C\CCCCCCCC(=O)OC(COC(C)=O)COC(=O)CCCCCCCCCCCCCCC (centres unmarked) [EC-18, 1-palmitoyl-2-linoleoyl-3-acetylglycerol]
Mean Duration of Anemia in Days (±SE) (Balb/c mice, 6.11 Gy TBI [1]; EC-18 100 mg/kg, n=17): 15.5 ± 0.5^c (12-20) Days | Mean Duration of Neutropenia in Days (±SE) (Balb/c mice, 6.11 Gy TBI [1]; EC-18 100 mg/kg, n=18): 23.9 ± 0.5^c (19-27) Days | Mean Duration of SN in Days (±SE) (Balb/c mice, 6.11 Gy TBI [1]; EC-18 100 mg/kg, n=18): 13.4 ± 1.3^c (7-25) Days | Mean Duration of Thrombocytopenia in Days (±SE) (Balb/c mice, 6.11 Gy TBI [1]; EC-18 100 mg/kg, n=18): 14.7 ± 1.0^c (5-20) Days | Mean of the First Day Of Anemia (HGB <12 g/dL) (±SE) (Balb/c mice, 6.11 Gy TBI [1]; EC-18 250 mg/kg): 12.1 ± 0.5 (10-15) | Mean of the First Day of Neutropenia (ANC <500 cells/μL) (±SE) (Balb/c mice, 6.11 Gy TBI [1]; EC-18 250 mg/kg): 3.2 ± 0.1 (3-5) | Mean of the First Day of Thrombocytopenia (PLT <100 × 10^3 cells/μL) (±SE) (Balb/c mice, 6.11 Gy TBI [1]; EC-18 250 mg/kg): 10.1 ± 0.1 (10-12) | Mean of the First Day of SN (ANC <100 cells/μL) (±SE) (Balb/c mice, 6.11 Gy TBI [1]; EC-18 250 mg/kg, 250 mg/kg): 8.5 ± 1.0 (3-17) days | Mean Duration of Anemia in Days (±SE) (Balb/c mice, 6.11 Gy TBI [1]; EC-18 250 mg/kg, n=19): 9.7 ± 0.7^d (5-17) Days | Mean Duration of Neutropenia in Days (±SE) (Balb/c mice, 6.11 Gy TBI [1]; EC-18 250 mg/kg, n=20): 21.2 ± 0.7^d (17-27) Days | Mean Duration of SN in Days (±SE) (Balb/c mice, 6.11 Gy TBI [1]; EC-18 250 mg/kg, n=20): 7.2 ± 0.7^d (2-12) Days | Mean Duration of Thrombocytopenia in Days (±SE) (Balb/c mice, 6.11 Gy TBI [1]; EC-18 250 mg/kg, n=20): 6.7 ± 0.5^d (3-12) Days | Mean of the First Day Of Anemia (HGB <12 g/dL) (±SE) (Balb/c mice, 6.11 Gy TBI [1]; EC-18 500 mg/kg): 12.2 ± 0.5 (7-15) | Mean of the First Day of Neutropenia (ANC <500 cells/μL) (±SE) (Balb/c mice, 6.11 Gy TBI [1]; EC-18 500 mg/kg): 3.4 ± 0.2 (3-5) | Mean of the First Day of Thrombocytopenia (PLT <100 × 10^3 cells/μL) (±SE) (Balb/c mice, 6.11 Gy TBI [1]; EC-18 500 mg/kg): 10.1 ± 0.1 (10-12) | Mean of the First Day of SN (ANC <100 cells/μL) (±SE) (Balb/c mice, 6.11 Gy TBI [1]; EC-18 500 mg/kg, 500 mg/kg): 7.0 ± 0.9 (3-20) days | Mean Duration of Anemia in Days (±SE) (Balb/c mice, 6.11 Gy TBI [1]; EC-18 500 mg/kg, n=19): 14.0 ± 0.8^e (7-20) Days | Mean Duration of Neutropenia in Days (±SE) (Balb/c mice, 6.11 Gy TBI [1]; EC-18 500 mg/kg, n=19): 21.9 ± 0.6^e (17-27) Days | Mean Duration of SN in Days (±SE) (Balb/c mice, 6.11 Gy TBI [1]; EC-18 500 mg/kg, n=19): 9.6 ± 0.6^e (2-14) Days | Mean Duration of Thrombocytopenia in Days (±SE) (Balb/c mice, 6.11 Gy TBI [1]; EC-18 500 mg/kg, n=19): 12.3 ± 0.7^e (7-20) Days | severity of the nadir (Balb/c mice, 6.11 Gy TBI [1]; mouse, in vivo): diminished | timing of nadirs for neutrophils, PLTs, red blood cells, hemoglobin (Balb/c mice, 6.11 Gy TBI [1]; mouse, in vivo): unchanged | survival vs negative control (Balb/c mice, 6.11 Gy TBI [2]; 250 mg/kg, even up to 3-day-delayed treatment regimen): significantly improved | weight loss induced by irradiation (Balb/c mice, 6.11 Gy TBI [2]; 6.11 Gy, 250 mg/kg): effectively prevented and rapidly recovered weight loss | No. of mice that survived/total (Balb/c mice, 6.11 Gy TBI [2]; [3]): 16/20 | Survival (Balb/c mice, 6.11 Gy TBI [2]; [3]): 80% | Survival time of decedents, Median (Balb/c mice, 6.11 Gy TBI [2]; [3]): 24.5 days | Survival time of decedents, Mean ± SEM (Balb/c mice, 6.11 Gy TBI [2]; 6.11 Gy, 250 mg/kg daily starting +0 d, 250 mg/kg): 25.0 days and 25.0 ± 1.1 days | No. of mice that survived/total (Balb/c mice, 6.11 Gy TBI [2]; [4]): 14/20 | Survival (Balb/c mice, 6.11 Gy TBI [2]; [4]): 70% | Survival time of decedents, Median (Balb/c mice, 6.11 Gy TBI [2]; [4]): 23.5 days | Survival time of decedents, Mean ± SEM (Balb/c mice, 6.11 Gy TBI [2]; 6.11 Gy, 250 mg/kg daily starting +1 d, 250 mg/kg): 23.7 days and 23.7 ± 1.4 days | No. of mice that survived/total (Balb/c mice, 6.11 Gy TBI [2]; [5]): 11/20 | Survival (Balb/c mice, 6.11 Gy TBI [2]; [5]): 55% | Survival time of decedents, Median (Balb/c mice, 6.11 Gy TBI [2]; [5]): 18.0 days | Survival time of decedents, Mean ± SEM (Balb/c mice, 6.11 Gy TBI [2]; 6.11 Gy, 250 mg/kg daily starting +2 d, 250 mg/kg): 18.1 days and 18.1 ± 0.8 days | No. of mice that survived/total (Balb/c mice, 6.11 Gy TBI [2]; [6]): 11/20 | Survival time of decedents, Median (Balb/c mice, 6.11 Gy TBI [2]; [6]): 23.0 days | Survival (Balb/c mice, 6.11 Gy TBI [2]; [7]): 80% and 55% | Survival time of decedents, Mean ± SEM (Balb/c mice, 6.11 Gy TBI [2]; [7]): 22.3 days and 22.3 ± 1.6 days | durable efficacy after withdrawal of EC-18 (Balb/c mice, 6.11 Gy TBI [2]; 15 days after the in-life phase without daily treatment): extended the survival of animals for an extra 15 days
